Several values for one entry are separate records, joined by “and”; a condition that tells them apart may be missing. Equal values may be shown once.
How the values were obtained:
[1] = system: participants; experiment: Systolic blood pressure, crossover vs caffeine; type: in vivo, human
Excerpt: (§1) All supplements were orally ingested with 8 fluid ounces of cold tap water.

[2] = system: acetylcholine; experiment: Acetylcholine level in young and old rats; type: in vivo
Description: (§2) Twenty-four young (6-8 Week) and twenty-four old (14-16 Months) Swiss Albino Wistar rats were housed in an animal room at a constant temperature (22±3° C.) and humidity (30%-70%) under a 12:12 h light-dark cycle with standard laboratory diet (Purina 5L79, Rat and Mouse 18% protein; PMI Nutrition International, Brentwood, MO, USA). Distilled water was provided ad libitum. All animal experiments were reviewed and approved by the Institutional Animal Ethical Committee (IAEC) of Radiant Research Services Pvt. Ltd (Bangalore, India). All research was conducted in accordance with the guidelines of the committee for the purpose of control and supervision of experiments on animals.
(§3) After one week of acclimation, the animals were randomly divided by body weight and age into six groups (n=8 per group in each test) for oral treatment once a day, at approximately same time each day (±1 hour), for 10 consecutive days: (1) vehicle control or (2) 1-methylxanthine or (3) 1-methylxanthine plus paraxanthine. The dose administered to the rat was calculated using US Food and Drug Administration for human equivalence doses (HED), assuming a human weight of 60 kg. […] Food intake was monitored daily while water intake was ad libitum. […] Body weight was recorded weekly. […]

[3] = system: participants; experiment: Resting energy expenditure, placebo-controlled crossover; type: in vivo, human
Description: Two participants were assigned in a randomized, double-blind, placebo-controlled, crossover fashion to ingest a non-energetic placebo (maltodextrin) or a 200 mg dose of 1-methylxanthine (1-MX). All supplements were orally ingested with 8 fluid ounces of cold tap water. Resting Energy Expenditure was measured at baseline, 30, 60, 90, 120 and 180 minutes after ingestion.

[4] = system: participants; experiment: Resting heart rate, crossover vs caffeine; type: in vivo, human
Excerpt: as §1

[5] = system: participants; experiment: Diastolic blood pressure, crossover vs caffeine; type: in vivo, human
Description: All supplements were orally ingested with 8 fluid ounces of cold tap water. Resting Heart Rate, Systolic and Diastolic Blood Pressure was measured at baseline, 30, 60, 90, 120 and 180 minutes after ingestion.

[6] = system: catalase; experiment: Catalase level in young and old rats; type: in vivo
Description: as §2, §3

[7] = Person one, time 0, 200 mg oral
[8] = Person two, time 0, 200 mg oral

## Cn1c(=O)[nH]c2nc[nH]c2c1=O [1-methylxanthine, 1-Methyl-3H-purine-2,6-dione]
[1]; 200 mg oral
  systolic blood pressure change from baseline: did not increase
  systolic blood pressure reduced in comparison to CA: 6.1%
[1]; Average
  Systolic Blood Pressure MEAN (30-180): 117.2 mm Hg
[1]; Person one
  Systolic Blood Pressure MEAN (30-180): 123.6 mm Hg
  Systolic Blood Pressure Mean Δ from 0: −1.6 mm Hg
  Systolic Blood Pressure Δ vs. CA: −6.4 mm Hg
[1]; Person one, 30 min
  Systolic Blood Pressure: 116 mm Hg
[1]; Person one, 60 min
  Systolic Blood Pressure: 136 mm Hg
[1]; Person one, 90 min
  Systolic Blood Pressure: 108 mm Hg
[1]; Person one, 120 min
  Systolic Blood Pressure: 116 mm Hg
[1]; Person one, 180 min
  Systolic Blood Pressure: 142 mm Hg
[1]; [7]
  Systolic Blood Pressure: 125 mm Hg
[1]; Person two
  Systolic Blood Pressure MEAN (30-180): 110.8 mm Hg
  Systolic Blood Pressure Mean Δ from 0: −2.2 mm Hg
  Systolic Blood Pressure Δ vs. CA: −9.6 mm Hg
[1]; Person two, 30 min
  Systolic Blood Pressure: 125 mm Hg
[1]; Person two, 60 min
  Systolic Blood Pressure: 110 mm Hg
[1]; Person two, 90 min
  Systolic Blood Pressure: 113 mm Hg
[1]; Person two, 120 min
  Systolic Blood Pressure: 114 mm Hg
[1]; Person two, 180 min
  Systolic Blood Pressure: 92 mm Hg
[1]; [8]
  Systolic Blood Pressure: 113 mm Hg
[2]; old rats, listed as 1-MX
  acetylcholine level: 56.33±3.42 U/ml and 56.33±3.58 U/ml
[2]; young rats
  acetylcholine level: 63.35±4.12 U/ml
[3]; Average
  Resting Energy Expenditure MEAN: 1,897 kcals/day
[3]; Person one
  Resting Energy Expenditure MEAN: 2,006 kcals/day
[3]; Person one, 30 min
  Resting Energy Expenditure: 2050 kcals/day
[3]; Person one, 60 min
  Resting Energy Expenditure: 1975 kcals/day
[3]; Person one, 90 min
  Resting Energy Expenditure: 1988 kcals/day
[3]; Person one, 120 min
  Resting Energy Expenditure: 1964 kcals/day
[3]; Person one, 180 min
  Resting Energy Expenditure: 2053 kcals/day
[3]; [7]
  Resting Energy Expenditure: 2017 kcals/day
[3]; Person two
  Resting Energy Expenditure MEAN: 1,788 kcals/day
[3]; Person two, 30 min
  Resting Energy Expenditure: 1789 kcals/day
[3]; Person two, 60 min
  Resting Energy Expenditure: 1790 kcals/day
[3]; Person two, 90 min
  Resting Energy Expenditure: 1777 kcals/day
[3]; Person two, 120 min
  Resting Energy Expenditure: 1912 kcals/day
[3]; Person two, 180 min
  Resting Energy Expenditure: 1670 kcals/day
[3]; [8]
  Resting Energy Expenditure: 1769 kcals/day
[4]; 200 mg oral
  heart rate change from baseline: did not increase
  heart rate reduced in comparison to CA: 3%
[4]; Average
  Resting Heart Rate MEAN (30-180): 57.9 bpm
  Resting Heart Rate Mean Δ from 0: −9.6 bpm
[4]; Person one
  Resting Heart Rate MEAN (30-180): 53.2 bpm
  Resting Heart Rate Mean Δ from 0: −11.8 bpm
  Resting Heart Rate Δ vs. CA: −2.0 bpm
[4]; Person one, 30 min
  Resting Heart Rate: 63 bpm
[4]; Person one, 60 min
  Resting Heart Rate: 54 bpm
[4]; Person one, 90 min
  Resting Heart Rate: 49 bpm
[4]; Person one, 120 min
  Resting Heart Rate: 45 bpm
[4]; Person one, 180 min
  Resting Heart Rate: 55 bpm
[4]; [7]
  Resting Heart Rate: 65 bpm
[4]; Person two
  Resting Heart Rate MEAN (30-180): 62.6 bpm
  Resting Heart Rate Mean Δ from 0: −2.4 bpm
  Resting Heart Rate Δ vs. CA: −1.0 bpm
[4]; Person two, 30 min
  Resting Heart Rate: 61 bpm
[4]; Person two, 60 min
  Resting Heart Rate: 60 bpm
[4]; Person two, 90 min
  Resting Heart Rate: 65 bpm
[4]; Person two, 120 min
  Resting Heart Rate: 60 bpm
[4]; Person two, 180 min
  Resting Heart Rate: 62 bpm
[4]; [8]
  Resting Heart Rate: 65 bpm
[5]; 200 mg oral
  diastolic blood pressure reduced in comparison to CA: 12%
[5]; Average
  Diastolic Blood Pressure MEAN (30-180): 70.6 mm Hg
  Diastolic Blood Pressure Mean Δ from 0: −1.4 mm Hg
[5]; Person one
  Diastolic Blood Pressure MEAN (30-180): 71.6 mm Hg
  Diastolic Blood Pressure Mean Δ from 0: −0.4 mm Hg
  Diastolic Blood Pressure Δ vs. CA: −5.0 mm Hg
[5]; Person one, 30 min
  Diastolic Blood Pressure: 71 mm Hg
[5]; Person one, 60 min
  Diastolic Blood Pressure: 68 mm Hg
[5]; Person one, 90 min
  Diastolic Blood Pressure: 69 mm Hg
[5]; Person one, 120 min
  Diastolic Blood Pressure: 71 mm Hg
[5]; Person one, 180 min
  Diastolic Blood Pressure: 79 mm Hg
[5]; [7]
  Diastolic Blood Pressure: 72 mm Hg
[5]; Person two
  Diastolic Blood Pressure MEAN (30-180): 69.6 mm Hg
  Diastolic Blood Pressure Mean Δ from 0: −2.4 mm Hg
  Diastolic Blood Pressure Δ vs. CA: −12.2 mm Hg
[5]; Person two, 30 min
  Diastolic Blood Pressure: 79 mm Hg
[5]; Person two, 60 min
  Diastolic Blood Pressure: 62 mm Hg
[5]; Person two, 90 min
  Diastolic Blood Pressure: 70 mm Hg
[5]; Person two, 120 min
  Diastolic Blood Pressure: 72 mm Hg
[5]; Person two, 180 min
  Diastolic Blood Pressure: 65 mm Hg
[5]; [8]
  Diastolic Blood Pressure: 72 mm Hg
[6]; old rats
  catalase levels: 32.78±1.26 U/mL
[6]; young rats
  catalase levels: 33.32±1.68 U/mL
